Measurements taken from patent US20150099645A1, “MEANS AND METHODS FOR DIAGNOSTICS AND TH[…] DISEASES” (priority 2012, published 2015).

Key:
[1] = test system: C57Bl/6 and Balb/c splenocytes; experiment: Mixed lymphocyte reaction, XTT proliferation assay; format: cell-based, mouse; conditions: for proliferation level: versus control (0 mM)
Protocol: Splenocytes were harvested from untreated Balb/c and C57BL/6 mice. C57BL/6 cells were incubated in a flat bottom 96 well plate for 96 h with either irradiated (1500 rads) or not irradiated Balb/c cells as indicated, at the indicated concentrations. XTT reagent for proliferation assay was added 24 h before reading. Plate was read at 620 nm.
Splenocytes were collected from spleens of C57Bl/6 and Balb/c mice and cultured ex-vivo and assayed for proliferation by XTT (tetrazolium salt). The C57Bl/6 and Balb/c cells were cultured ex-vivo together to mimic a GVHD reaction. The cells were cultured in 3 groups, having different cell concentrations: • 2×2: 2×10̂5 C57Bl/6 and 2×10̂5 balb/c cells • 1×1: 1×10̂5 C57Bl/6 and 1×10̂5 balb/c cells • 2×*2: 2×10̂5 C57Bl/6 and 2×10̂5 irradiated balb/c cells
In order to test the effect of GSK-3β activation state on cell proliferation, Lithium Chloride (a known inhibitor of GSK-3β) was added at different concentrations. […] Furthermore, it can be seen that the effect of LiCl depends on the confluence (concentration) of cells.

T cells (CD3+) = experiment: GVHD mouse model, LiCl treatment of allogeneic mice, CD3+ T cells of spleen counted by flow cytometry; format: in vivo; conditions: 2.0 mg/kg LiCl once a day, day 3 post-transplant
Protocol: Mice are divided into 3 groups (Untreated, Syngeneic and Allogeneic) per time point with 6-12 mice per group. The untreated group mice (without irradiation) were injected with plain medium. The syngeneic group irradiated (600 rads) Balb/c mice were injected with splenocytes (30×10̂6) from matched donor Balb/c mice. The allogeneic group irradiated (600 rads) Balb/c mice were injected with splenocytes (30×10̂6) from unmatched donor C57Bl/6 mice. An additional 2-3 mice in each group were injected with 2.0 mg/kg LiCl (dissolved 1:2 LiCl:PBS), once a day from day 1 to day 5 post-transplant, sacrificed at days 3 and 5.
Total T cells (CD3+) were collected from spleens of mice of the 3 groups of the GVHD model as described above. Cells were stained for CD3 and counted by Flow Cytometry.
In order to explore the effect of GSK-3β activation state on T-cell proliferation, the GVHD model mice were treated with Lithium chloride (LiCl). Lithium chloride (LiCl) is known to affect GSK-3β activation state by regulating its phosphorylation state. Lithium chloride (LiCl) treatments were given to a separate group of allogeneic mice.

SMILES: [Cl-].[Li+] [LiCl, Lithium chloride]
- proliferation level ([1]; 12.5 mM LiCl, 2×2 group (2×10^5 C57Bl/6 and 2×10^5 balb/c cells)): significantly lower
- proliferation level ([1]; 25 mM LiCl, 1×1 group (1×10^5 C57Bl/6 and 1×10^5 balb/c cells)): significantly higher
- proliferation level ([1]; 25 mM LiCl, 2×2 group): significantly higher
- effect on proliferation ([1]; doses smaller than 12.5 mM): no apparent effect
- amount of T-cells (T cells (CD3+)): increased
